{"source": "paper PMC10305181", "about": "“A VEGFB-Based Peptidomimetic Inhibits VEGFR2-Mediated PI3K/Akt/mTOR and PLCγ/ERK Signaling and Elicits Apoptotic, Antiangiogenic, and Antitumor Activities” (Pharmaceuticals, 2023)", "key": {"[1]": {"assay": "body weight / tolerability of treated 4T1 tumor-bearing mice", "format": "in vivo", "settings": "0.2 mg·kg^−1 i.v. once every 2 days", "procedure": "(§1) Figure 2 Loop formation is important for the antitumor activity of VGB3. (A) To investigate the efficacy of VGB3 peptides in vivo 13 days after transplantation of a 4T1 murine MCT into female BALB/c mice (the tumor volume ~150 mm^3), the treatment groups received 0.2 mg·kg^−1 (once every 2 days, i.v.) of either the C-VGB3 or L-VGB3 and the control group received PBS for 20 days. Error bars denote ± SEM. n = 6; **** p < 0.0001, ns = not significant; two-way ANOVA. (B) Investigation of C-VGB3 and L-VGB3 effects on mice weight. […] (C,D) Immunohistochemical (IHC) analyses of CD31 and Ki67 for the C-VGB3-, L-VGB3- and PBS-treated tumors. For IHC staining, the sections of tumor tissues were incubated with the primary mouse monoclonal antibodies for CD31 (1:2000 (v/v)) and Ki67 (5 µg·mL^−1). […] Photographs were taken at 40× magnification. Error bars denote ± SEM. n = 3; * 0.02 ≤ p ≤ 0.04, ns = not significant; one-way ANOVA.\nThe antitumor efficacy of the peptides was investigated as described previously. Thirteen days after implanting, tumor (~150 mm^3)-bearing mice were grouped randomly into control and treated animals (6/group). From day 13 to day 33, the treatment group received cyclic or linear VGB3 (0.2 mg·kg^−1), whereas the control group received an equal volume of PBS (i.v., once every two days). The volume of tumors was calculated as 0.52 × length × width^2. In addition, changes in the weight of animals were recorded every 2 days."}, "[2]": {"tested_on": "CD31-stained microvessels", "assay": "CD31 immunohistochemistry of 4T1 tumors (microvessel density)", "format": "in vivo, murine", "settings": "0.2 mg·kg^−1 i.v.; day 33; n = 3; p = 0.02", "procedure": "as §1\nFor immunohistochemistry staining, deparaffinized tumor sections were incubated overnight at 4 °C with mouse monoclonal primary anti-Ki67 (5 µg·mL^−1) or anti-CD31 (1:2000 (v/v)). The antigens were detected using 3,3-diaminobenzidine. All images were captured and analyzed with an Olympus BX51 microscope (Olympus America, New York, NY, USA)."}, "HUVECs": {"tested_on": "HUVECs", "assay": "tube formation assay on Matrigel, HUVECs", "format": "cell-based, human", "settings": "0.40 μM; 12 h; VEGF 20 ng·mL^−1; n = 3; p < 0.001", "procedure": "Figure 4 Inhibition of EC proliferation and tubulogenesis by C-VGB3 through abrogation of VEGFR2-mediated signaling pathways. (A) MTT assay was performed to investigate C-VGB3 effect on the proliferation of ECs. C-VGB3 (0–0.91 μM) was used with (20 ng·mL^−1) or without VEGF. The control cells were treated with no peptide. After 24 and 48 h, the absorbance was measured at 570 nm utilizing an ELISA plate reader (Space Fax 2100, Awareness, Westport, CT, USA). Error bars indicate ± SEM. n = 3; * p = 0.02, ** p = 0.001, *** and ### p = 0.0001, **** and #### p < 0.0001, ns = not significant; one-way ANOVA. (B) The anti-tubulogenesis effect of C-VGB3 in VEGF (20 ng·mL^−1)-induced HUVECs. Image analysis performed by Wimasis image analysis software is illustrated in the bottom panel. Error bars indicate ±SEM. n = 3; *** 0.0004 ≤ p ≤ 0.0001; unpaired Student’s t-test. To evaluate the mechanism by which C-VGB3 diminished cell proliferation and tube formation, Western blot analysis was performed for HUVECs. […] Error bars indicate ± SEM. n = 3; * p = 0.02, ** p = 0.001, *** p = 0.0001, **** p < 0.0001; one-way ANOVA. […] Error bars indicate ± SEM. n = 3; * p = 0.02, ** p = 0.001, **** p < 0.0001; one-way ANOVA.\nTube formation of HUVECs was assayed on the Matrigel. After pre-labeling with PKH26 cell tracker (Sigma-Aldrich, St. Louis, MO, USA) HUVECs were plated into 24-well plates pre-coated with Matrigel Basement Membrane Matrix (BD Biosciences, San Jose, CA, USA). C-VGB3 (0.40 μM) was added to the medium, and images were manually captured after 12 h using an Olympus BX-51 fluorescence microscope. Quantitative analyses were performed by Wimasis online software."}}, "note": "Bridge positions count the residues as written; N and C are the ends. Peptide text beside a SMILES is read from it.", "data": [{"smiles": "CC(C)C[C@@H]1NC(=O)CNC(=O)[C@H](CC(=O)O)NC(=O)[C@H](CC(=O)O)NC(=O)[C@@H]2CCCN2C(=O)[C@@H]2CCCN2C(=O)[C@H](CCCNC(=N)N)NC(=O)[C@@H](NC(=O)[C@@H](N)CCC(=O)O)CSSC[C@@H](C(=O)O)NC1=O", "note": "[C-VGB3] (H-ECRPPDDGLC-OH; disulfide 2-10)", "values": [{"measurement": "toxicity at this dosage (weight gain)", "setting": "[1]; three weeks", "result": "not toxic"}, {"measurement": "mice weight vs control groups", "setting": "[1]; two-way ANOVA", "result": "no significant differences"}, {"measurement": "reduction in vessel density (CD31)", "setting": "[2]", "result": 84, "unit": "%"}, {"measurement": "decrease in tube branching points", "setting": "HUVECs", "result": 81.46, "unit": "%"}, {"measurement": "decrease in tube length", "setting": "HUVECs", "result": 44.37, "unit": "%"}, {"measurement": "decrease in tube numbers", "setting": "HUVECs", "result": 58.64, "unit": "%"}]}]}
